One substance from patent US6441036B1 (priority 1998, dated 2002) can be followed below.

Series [1] is described as follows: Intravenous glucose tolerance test (IVGTT). Type of series: in vivo. The conditions noted are these: 5 weeks old Zucker (fa/fa) rats. On the procedure:
Male Zucker (fa/fa) rats (5 weeks old) were anaesthetised after a 5-hours fast, by intraperitoneal injection of sodium pentobarbital (50 mg/kg). The rats were injected with glucose (0.55 g/kg) in the saphenous vein and blood samples were collected from the tail vein in heparinized tubes at time 0, 5, 10, 15, 20 and 30 minutes after the glucose load. Samples were kept on ice, centrifuged and plasma was stored at −20° C. until analysis.

Series [2] in a line: Fatty acid composition in liver and plasma of obese Zucker fa/fa rats (Example 19). Type of series: in vivo. The following applies: 300 mg/day/kg by gavage once daily for 10 days. On the procedure:
Male obese Zucker fa/fa rats, weighing 100 g at the start of the experiment, were housed in pairs in metal wire cages in a room maintained at 12 h light-dark cycles and a constant temperature of 20±° C. The animals were acclimatised for at least one week under these conditions before the start of the experiment.
TTA and palmitic acid (control), was suspended in 0.5% (w/v) carboxymethyl cellulose (CMC) and administered at a dose of 300 mg/day/kg body weight, by gastric intubation (gavage) once daily for 10 days. The rats were fasted for 2 hours before termination of the experiment. Blood and organs were collected. Total lipids were extracted from liver and plasma. The lipids were evaporated, saponified and esterified prior to separation using a Carlo Erba 2900 gas-chromatograph.

On to Tetradecylthioacetic acid [TTA], for which, in series [1] (TTA treated versus control), the “IVGTT glucose curves (FIG. 7B)” value is “normal and comparable”. In series [1] (glucose 0.55 g/kg i.v.), the “Plasma insulin response to glucose (FIG. 7A)” value was “significantly lower”. For the same substance, in series [2], the “Fatty acid composition in liver: Monounsaturated tetradecylthioacetic acid” value was 1.1 ± 0.2 % of total, the “Fatty acid composition in liver: Oleic acid” value is reported as 14.9 ± 1.0 % of total, the “Fatty acid composition in plasma: Monounsaturated tetradecylthioacetic acid” value is given as 0.2 ± 0.1 % of total and the “Fatty acid composition in plasma: Oleic acid” value is recorded as 22.1 ± 0.5 % of total.
